Test results as given in patent US10201523B2, “Use of wilforlide A for overcoming chemotherapy resistance” (WESTERN UNIVERSITY OF HEALTH SCIENCES, priority 2013, dated 2019).
Values joined by “and” are separate entries in the source; they are usually repeats but may differ in a detail not shown here. Equal values may be shown once.

Tested on: DU145-TxR
Assay: SRB cell viability assay, docetaxel with/without wilforlide A pretreatment
Assay type: cell-based
Conditions: DU145-TxR; for viability at 1 pM / viability at 0.0001 µM / viability at 0.000333 µM / viability at 0.001 µM / viability at 0.00333 µM / viability at 0.01 µM / viability at 0.0333 µM / viability at 0.1 µM: 72 h; for A at 565 nm: background = 0.046
Text: FIG. 4 summarizes the data of Tables 18 and 19 in a graphical format.

[1] = no wilforlide A pre-Tx, docetaxel 0.001 nM 72 h
[2] = no wilforlide A pre-Tx, docetaxel 0.1 nM 72 h
[3] = no wilforlide A pre-Tx, docetaxel 0.333 nM 72 h
[4] = no wilforlide A pre-Tx, docetaxel 1 nM 72 h
[5] = no wilforlide A pre-Tx, docetaxel 3.33 nM 72 h
[6] = no wilforlide A pre-Tx, docetaxel 10 nM 72 h
[7] = no wilforlide A pre-Tx, docetaxel 33.3 nM 72 h
[8] = no wilforlide A pre-Tx, docetaxel 100 nM 72 h
[9] = wilforlide A 2.5 μg/ml pre-Tx, docetaxel 0.001 nM 72 h
[10] = wilforlide A 2.5 μg/ml pre-Tx, docetaxel 0.1 nM 72 h
[11] = wilforlide A 2.5 μg/ml pre-Tx, docetaxel 0.333 nM 72 h
[12] = wilforlide A 2.5 μg/ml pre-Tx, docetaxel 1 nM 72 h
[13] = wilforlide A 2.5 μg/ml pre-Tx, docetaxel 3.33 nM 72 h
[14] = wilforlide A 2.5 μg/ml pre-Tx, docetaxel 10 nM 72 h
[15] = wilforlide A 2.5 μg/ml pre-Tx, docetaxel 33.3 nM 72 h
[16] = wilforlide A 2.5 μg/ml pre-Tx, docetaxel 100 nM 72 h

`CC(=O)O[C@@]12CO[C@@H]1C[C@H](O)[C@@]1(C)C(=O)[C@H](O)C3=C(C)[C@@H](OC(=O)[C@H](O)[C@@H](NC(=O)OC(C)(C)C)c4ccccc4)C[C@@](O)([C@@H](OC(=O)c4ccccc4)[C@H]21)C3(C)C` [docetaxel] showed a viability at 1 pM [1] of 100%, a viability at 0.0001 µM [2] of 104% and a viability at 0.000333 µM [3] of 99%. For the same compound, the viability at 0.001 µM [4] was 98.2%, the viability at 0.00333 µM [5] was 98.5% and the viability at 0.01 µM [6] was 101%. The viability at 0.0333 µM [7] was 99.2%, the viability at 0.1 µM [8] was 97.4% and the viability at 1 pM [9] was 100%. It also gave a viability at 0.0001 µM [10] of 104%, a viability at 0.000333 µM [11] of 102% and a viability at 0.001 µM [12] of 104%. For the same compound, the viability at 0.00333 µM [13] was 98.4%, the viability at 0.01 µM [14] was 102% and the viability at 0.0333 µM [15] was 94.1%. For the same compound, the viability at 0.1 µM [16] was 44.7%, the “mean A” value [1] was 2.257 and the “A at 565 nm” value [1] was 2.285 and 2.199 and 2.289. The “mean A” value [2] was 2.346, the “A at 565 nm” value [2] was 2.354 and 2.413 and 2.272 and the “mean A” value [3] was 2.235. For the same compound, the “A at 565 nm” value [3] was 2.281 and 2.251 and 2.175, the “mean A” value [4] was 2.216 and the “A at 565 nm” value [4] was 2.279 and 2.233 and 2.137. The “mean A” value [5] was 2.224, the “A at 565 nm” value [5] was 2.207 and 2.230 and 2.236 and the “mean A” value [6] was 2.272. The “A at 565 nm” value [6] was 2.254 and 2.359 and 2.203, the “mean A” value [7] was 2.239 and the “A at 565 nm” value [7] was 2.145 and 2.270 and 2.303. The “mean A” value [8] was 2.198, the “A at 565 nm” value [8] was 2.153 and 2.224 and 2.217 and the “mean A” value [9] was 2.137. The “A at 565 nm” value [9] was 2.092 and 2.151 and 2.170, the “mean A” value [10] was 2.220 and the “A at 565 nm” value [10] was 2.248 and 2.263 and 2.151. For the same compound, the “mean A” value [11] was 2.169, the “A at 565 nm” value [11] was 2.187 and 2.102 and 2.218 and the “mean A” value [12] was 2.217. For the same compound, the “A at 565 nm” value [12] was 2.177 and 2.229 and 2.246, the “mean A” value [13] was 2.103 and the “A at 565 nm” value [13] was 2.064 and 2.090 and 2.155. For the same compound, the “mean A” value [14] was 2.176, the “A at 565 nm” value [14] was 2.171 and 2.204 and 2.155 and the “mean A” value [15] was 2.011. The “A at 565 nm” value [15] was 2.086 and 2.018 and 1.930, the “mean A” value [16] was 0.956 and the “A at 565 nm” value [16] was 0.987 and 0.926 and 0.957.
